Test results published in patent US9045491B2, “Thienyl [3,2-D] pyrimidin-4-one compounds, preparation method, pharmaceutical compositions and use thereof” (SHANGHAI INSTITUTE OF MATERIA MEDICA, CHINESE ACADEMY OF …, priority 2011, dated 2015).

Legend:
Format in all cases: biochemical
human DPP 8 = target: T1, human DPP 8 (Homo sapiens, UniProt Q6V1X1); assay: DPP 8 activity screening (Ala-Pro-AMC fluorescence); conditions: N.I. = No Inhibition
T1 construct: made in house; host or cells: insect cells, baculovirus Bac-to-Bac
T1 sequence (Q6V1X1 whole entry): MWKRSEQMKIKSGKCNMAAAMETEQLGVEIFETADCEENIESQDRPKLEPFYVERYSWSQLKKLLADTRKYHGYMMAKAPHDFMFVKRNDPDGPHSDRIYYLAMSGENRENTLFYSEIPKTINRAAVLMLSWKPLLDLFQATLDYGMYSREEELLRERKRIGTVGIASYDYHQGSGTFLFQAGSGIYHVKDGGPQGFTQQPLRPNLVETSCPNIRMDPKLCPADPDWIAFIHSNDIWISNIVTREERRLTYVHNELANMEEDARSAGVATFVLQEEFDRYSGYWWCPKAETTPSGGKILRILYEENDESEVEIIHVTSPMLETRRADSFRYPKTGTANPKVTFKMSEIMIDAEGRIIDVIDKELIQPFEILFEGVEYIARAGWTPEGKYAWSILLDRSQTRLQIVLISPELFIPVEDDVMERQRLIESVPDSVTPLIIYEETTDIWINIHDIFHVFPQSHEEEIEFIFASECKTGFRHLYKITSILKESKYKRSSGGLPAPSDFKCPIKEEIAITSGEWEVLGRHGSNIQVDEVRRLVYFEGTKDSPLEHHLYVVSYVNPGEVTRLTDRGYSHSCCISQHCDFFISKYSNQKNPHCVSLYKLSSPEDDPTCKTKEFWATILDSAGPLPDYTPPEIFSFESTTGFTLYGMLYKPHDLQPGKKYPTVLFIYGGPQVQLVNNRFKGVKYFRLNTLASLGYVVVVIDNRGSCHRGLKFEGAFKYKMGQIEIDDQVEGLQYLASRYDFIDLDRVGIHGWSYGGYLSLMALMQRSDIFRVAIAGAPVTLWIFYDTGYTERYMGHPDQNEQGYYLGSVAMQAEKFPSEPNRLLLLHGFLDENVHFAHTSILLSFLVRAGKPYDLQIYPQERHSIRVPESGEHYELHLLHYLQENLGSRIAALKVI
Text: (§1) Screening method: dipeptidyl peptidase IV (DPP IV) activity screening, dipeptidyl peptidase 7 (DPP 7), dipeptidyl peptidase 8 (DPP 8) activity screening, and dipeptidyl peptidase 9 (DPP 9) activity screening.
(§2) Materials: human DPP IV, obtained extracellular fragment of protease DPP IV (aa29-766), was expressed and purified by our laboratory using baculovirus expression system Bac-to-Bac (purchased from GIBCO company) in accordance with the conventional experimental technology; human DPP 8 was obtained in insect cells by our laboratory using baculovirus expression system Bac-to-Bac (purchased from GIBCO company) in accordance with the conventional experimental technology; Human DPP 9 was obtained in insect cells by our laboratory using baculovirus expression system Bac-to-Bac (purchased from GIBCO company) in accordance with the conventional experimental technology; and the substrate Ala-Pro-AMC was synthesized by GL Biochem (Shanghai) Ltd.
(§3) Principle of Activity test: DPP IV, DPP 8 and DPP 9 can specifically hydrolyze the substrate Ala-Pro-AMC to form product AMC, and AMC is excited by 355 nm of UV light to generate 460 nm of emission light. The linear change of fluorescence value at 460 nm in unit time was dynamically measured and DPP IV activity was obtained by calculation.
(§4) Sample treatment: the sample was dissolved in DMSO and stored in low temperature. The concentration of DMSO in the final system was controlled so that the detected activity was not affected.
(§5) The activity of sample was tested under the selected single concentration from preliminary screening, for example, 20 μg/mL. […] The software for calculation was Graphpad Prism 4 and the model used for fitting was sigmoidal dose-response (variable slope). For most inhibitor screening models, the bottom and top of the fitting curve were set to 0 and 100.

Human DPP 9 = target: T2, Human DPP 9 (Homo sapiens, UniProt Q86TI2); assay: DPP 9 activity screening (Ala-Pro-AMC fluorescence); conditions: N.I. = No Inhibition
T2 construct: made in house; host or cells: insect cells, baculovirus Bac-to-Bac
T2 sequence (Q86TI2 whole entry): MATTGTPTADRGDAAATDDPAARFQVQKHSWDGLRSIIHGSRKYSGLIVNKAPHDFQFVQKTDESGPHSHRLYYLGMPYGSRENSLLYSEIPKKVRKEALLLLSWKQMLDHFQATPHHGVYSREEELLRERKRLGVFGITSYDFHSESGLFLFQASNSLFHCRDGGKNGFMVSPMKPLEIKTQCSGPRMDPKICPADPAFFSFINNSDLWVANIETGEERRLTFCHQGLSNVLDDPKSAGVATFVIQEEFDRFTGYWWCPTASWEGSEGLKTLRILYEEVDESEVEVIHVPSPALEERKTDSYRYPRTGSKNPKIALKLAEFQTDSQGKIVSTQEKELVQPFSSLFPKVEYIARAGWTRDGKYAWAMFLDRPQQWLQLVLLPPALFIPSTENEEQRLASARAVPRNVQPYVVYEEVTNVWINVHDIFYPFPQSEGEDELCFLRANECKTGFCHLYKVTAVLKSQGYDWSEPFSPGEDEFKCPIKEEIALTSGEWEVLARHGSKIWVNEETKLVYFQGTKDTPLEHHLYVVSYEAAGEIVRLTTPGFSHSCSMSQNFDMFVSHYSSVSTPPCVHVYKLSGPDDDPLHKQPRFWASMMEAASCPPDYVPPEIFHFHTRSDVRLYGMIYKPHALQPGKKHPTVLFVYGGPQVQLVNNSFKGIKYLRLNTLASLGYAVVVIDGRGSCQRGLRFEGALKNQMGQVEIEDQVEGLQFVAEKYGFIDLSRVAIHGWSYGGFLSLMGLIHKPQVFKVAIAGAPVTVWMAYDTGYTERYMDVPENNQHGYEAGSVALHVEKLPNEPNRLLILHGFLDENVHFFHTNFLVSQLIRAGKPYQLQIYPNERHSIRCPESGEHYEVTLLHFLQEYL
Text: as §1, §2, §3, §4, §5

FAP = target: T3, FAP (Homo sapiens, UniProt Q12884); assay: FAP inhibition (Table 1); conditions: N.I. = No Inhibition
T3 sequence (Q12884 1-760): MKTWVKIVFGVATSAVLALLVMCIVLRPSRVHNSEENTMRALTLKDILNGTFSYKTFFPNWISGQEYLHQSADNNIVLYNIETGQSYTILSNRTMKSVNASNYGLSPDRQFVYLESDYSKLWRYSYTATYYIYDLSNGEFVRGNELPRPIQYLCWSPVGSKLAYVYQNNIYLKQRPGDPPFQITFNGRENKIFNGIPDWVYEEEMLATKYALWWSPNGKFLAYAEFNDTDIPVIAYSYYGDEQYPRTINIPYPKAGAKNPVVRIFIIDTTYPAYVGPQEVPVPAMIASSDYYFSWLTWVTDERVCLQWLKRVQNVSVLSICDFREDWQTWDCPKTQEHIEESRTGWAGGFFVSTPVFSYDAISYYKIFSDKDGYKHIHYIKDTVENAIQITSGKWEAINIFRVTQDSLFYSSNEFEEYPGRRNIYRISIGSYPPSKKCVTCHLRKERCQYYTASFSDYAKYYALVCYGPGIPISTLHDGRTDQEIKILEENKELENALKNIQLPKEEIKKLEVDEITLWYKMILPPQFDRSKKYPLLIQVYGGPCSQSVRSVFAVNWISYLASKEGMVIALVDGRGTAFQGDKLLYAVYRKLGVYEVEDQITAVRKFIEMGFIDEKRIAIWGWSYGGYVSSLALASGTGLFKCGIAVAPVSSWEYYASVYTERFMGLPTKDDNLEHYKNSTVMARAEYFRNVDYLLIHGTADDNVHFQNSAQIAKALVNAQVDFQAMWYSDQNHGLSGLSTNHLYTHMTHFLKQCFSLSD

human DPP IV = target: T4, human DPP IV (Homo sapiens, UniProt P27487); assay: DPP IV activity screening (Ala-Pro-AMC fluorescence)
T4 construct: extracellular fragment of protease DPP IV (aa29-766); made in house; host or cells: baculovirus expression system Bac-to-Bac
T4 sequence (P27487 29-766): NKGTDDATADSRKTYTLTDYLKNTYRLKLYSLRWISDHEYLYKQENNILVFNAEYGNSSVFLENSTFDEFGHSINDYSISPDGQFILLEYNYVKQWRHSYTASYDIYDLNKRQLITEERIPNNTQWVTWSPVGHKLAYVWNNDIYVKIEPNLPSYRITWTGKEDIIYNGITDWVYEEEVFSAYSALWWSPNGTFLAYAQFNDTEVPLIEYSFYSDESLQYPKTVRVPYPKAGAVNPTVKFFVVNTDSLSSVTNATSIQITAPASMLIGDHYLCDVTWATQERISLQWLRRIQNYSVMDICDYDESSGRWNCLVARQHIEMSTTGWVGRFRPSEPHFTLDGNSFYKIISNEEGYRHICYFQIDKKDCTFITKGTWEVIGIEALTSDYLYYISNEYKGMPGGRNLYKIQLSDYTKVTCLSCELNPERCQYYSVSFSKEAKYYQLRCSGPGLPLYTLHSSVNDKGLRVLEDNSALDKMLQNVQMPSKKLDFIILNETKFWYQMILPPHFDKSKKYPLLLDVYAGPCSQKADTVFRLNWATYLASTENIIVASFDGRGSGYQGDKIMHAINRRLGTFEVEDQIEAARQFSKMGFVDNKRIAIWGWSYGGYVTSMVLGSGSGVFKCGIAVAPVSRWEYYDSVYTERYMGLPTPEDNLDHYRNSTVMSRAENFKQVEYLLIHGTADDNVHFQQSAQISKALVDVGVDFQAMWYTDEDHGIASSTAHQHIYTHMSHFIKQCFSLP
Protocol: as §1
Instruments: Microplate Reader (PerkinElmer, USA).
The linear change of fluorescence value at 460 nm in unit time was dynamically measured and DPP IV activity was obtained by calculation.
as §4, §5

[1] = target: dipeptidyl peptidase 7 (DPP 7) (Homo sapiens, UniProt Q9UHL4); assay: DPP 7 activity screening; conditions: N.I. = No Inhibition
Protocol: as §1, §4, §5

| Compound | IC50 (human DPP 8) | IC50 (Human DPP 9) | IC50 (FAP) | IC50 (human DPP IV) | IC50 [1] | DPP 7 IC50 [1] | DPP 8 IC50 (human DPP 8) | DPP 9 IC50 (Human DPP 9) | FAP IC50 (FAP) |
| --- | --- | --- | --- | --- | --- | --- | --- | --- | --- |
| Cc1ccc(CNC(=O)c2csc3c(=O)n(Cc4ccccc4C#N)c(N4CCC[C@@H](N)C4)nc23)cc1 [Compound 64, (R)-2-(3-aminopiperidin-1-yl)-3-(2-cyanobenzyl)-N-(4-methylbenzyl)-4-oxo-3,4-dihydrothieno[3,2-d]-pyrimidine-7-carboxamide] | 5.81 µM | 39.7 µM | 9.38 µM | 0.0332 µM | 52 µM | – | – | – | – |
| N#Cc1ccccc1Cn1c(N2CCC[C@@H](N)C2)nc2c(C(=O)NC3CC3)csc2c1=O [Compound 65, (R)-2-(3-aminopiperidin-1-yl)-3-(2-cyanobenzyl)-N-cyclopropyl-4-oxo-3,4-dihydrothieno[3,2-d]pyrimidine-7-carboxamide] | 44.8 µM | 137 µM | 75.5 µM | 0.0302 µM | – | N.I. | – | – | – |
| COC(=O)[C@@H](NC(=O)c1csc2c(=O)n(Cc3ccccc3C#N)c(N3CCC[C@@H](N)C3)nc12)c1ccccc1 [Compound 66, (S)-methyl 2-(2-((R)-3-aminopiperidin-1-yl)-3-(2-cyanobenzyl)-4-oxo-3,4-dihydrothieno[3,2-d]pyrimidine-7-carboxamido)-2-phenylacetate] | 14.4 µM | 47.1 µM | 18.8 µM | 0.0358 µM | – | N.I. | – | – | – |
| COC(=O)[C@H](Cc1ccccc1)NC(=O)c1csc2c(=O)n(Cc3ccccc3C#N)c(N3CCC[C@@H](N)C3)nc12 [Compound 67, (S)-methyl 2-(2-((R)-3-aminopiperidin-1-yl)-3-(2-cyanobenzyl)-4-oxo-3,4-dihydrothieno[3,2-d]pyrimidine-7-carboxamido)-3-phenylpropanoate] | 24.9 µM | 53 µM | 28.1 µM | 0.0137 µM | – | N.I. | – | – | – |
| N#Cc1ccccc1Cn1c(N2CCC[C@@H](N)C2)nc2c(C(=O)NCc3ccc(C(F)(F)F)cc3)csc2c1=O [Compound 68, (R)-2-(3-aminopiperidin-1-yl)-3-(2-cyanobenzyl)-4-oxo-N-(4-(trifluoromethyl)benzyl)-3,4-dihydrothieno[3,2-d]pyrimidine-7-carboxamide] | 8.16 µM | 100 µM | 8.78 µM | 0.023 µM | 145 µM | – | – | – | – |
| N#Cc1ccccc1Cn1c(N2CCC[C@@H](N)C2)nc2c(C(=O)N3CCOCC3)csc2c1=O [Compound 69, (R)-2-((2-(3-aminopiperidin-1-yl)-7-(morpholine-4-carbonyl)-4-oxothieno-[3,2-d]pyrimidin-3(4H)-yl)methyl)-benzonitrile] | – | – | – | 0.0321 µM | – | N.I. | N.I. | N.I. | N.I. |
| CN1CCN(C(=O)c2csc3c(=O)n(Cc4ccccc4C#N)c(N4CCC[C@@H](N)C4)nc23)CC1 [Compound 70, (R)-2-((2-(3-aminopiperidin-1-yl)-7-(4-methylpiperazine-1-carbonyl)-4-oxothieno[3,2-d]pyrimidin-3(4H)-yl)-methyl)benzonitrile] | 38.9 µM | 94.5 µM | 136 µM | 0.0186 µM | – | N.I. | – | – | – |
| CCNC(=O)c1csc2c(=O)n(Cc3ccccc3C#N)c(N3CCC[C@@H](N)C3)nc12 [Compound 71, (R)-2-(3-aminopiperidin-1-yl)-3-(2-cyanobenzyl)-N-ethyl-4-oxo-3,4-dihydrothieno[3,2-d]pyrimidine-7-carboxamide] | 26.8 µM | 238 µM | 52.1 µM | 0.0143 µM | 144 µM | – | – | – | – |
| CC(C)NC(=O)c1csc2c(=O)n(Cc3ccccc3C#N)c(N3CCC[C@@H](N)C3)nc12 [Compound 72, (R)-2-(3-aminopiperidin-1-yl)-3-(2-cyanobenzyl)-N-isopropyl-4-oxo-3,4-dihydrothieno[3,2-d]pyrimidine-7-carboxamide] | 30.1 µM | 149 µM | 39.4 µM | 0.0151 µM | – | N.I. | – | – | – |
| N#Cc1ccccc1Cn1c(N2CCC[C@@H](N)C2)nc2c(C(=O)NCC3CC3)csc2c1=O [Compound 73, (R)-2-(3-aminopiperidin-1-yl)-3-(2-cyanobenzyl)-N-(cyclopropylmethyl)-4-oxo-3,4-dihydrothieno[3,2-d]-pyrimidine-7-carboxamide] | 9.08 µM | 66.8 µM | 14.6 µM | 0.00892 µM | 159 µM | – | – | – | – |

Results, then the molecule that gave them:

| IC50 (human DPP 8) | IC50 (Human DPP 9) | IC50 (FAP) | IC50 (human DPP IV) | IC50 [1] | DPP 7 IC50 [1] | DPP 8 IC50 (human DPP 8) | DPP 9 IC50 (Human DPP 9) | FAP IC50 (FAP) | Compound |
| --- | --- | --- | --- | --- | --- | --- | --- | --- | --- |
| 18.4 µM | 92.9 µM | 30.6 µM | 0.0106 µM | – | N.I. | – | – | – | COCCNC(=O)c1csc2c(=O)n(Cc3ccccc3C#N)c(N3CCC[C@@H](N)C3)nc12 [Compound 74, (R)-2-(3-aminopiperidin-1-yl)-3-(2-cyanobenzyl)-N-(2-methoxyethyl)-4-oxo-3,4-dihydrothieno[3,2-d]pyrimidine-7-carboxamide] |
| 23 µM | 91.7 µM | 28.3 µM | 0.00815 µM | – | N.I. | – | – | – | COCCCNC(=O)c1csc2c(=O)n(Cc3ccccc3C#N)c(N3CCC[C@@H](N)C3)nc12 [Compound 75, (R)-2-(3-aminopiperidin-1-yl)-3-(2-cyanobenzyl)-N-(3-methoxypropyl)-4-oxo-3,4-dihydrothieno[3,2-d]pyrimidine-7-carboxamide] |
| – | – | – | 0.0816 µM | – | N.I. | N.I. | N.I. | N.I. | N#Cc1ccccc1Cn1c(N2CCC[C@@H](N)C2)nc2c(C(=O)N3CCCC3)csc2c1=O [Compound 76, (R)-2-((2-(3-aminopiperidin-1-yl)-4-oxo-7-(pyrrolidine-1-carbonyl)thieno-[3,2-d]pyrimidin-3(4H)-yl)methyl)-benzonitrile] |
| 49.4 µM | – | 45.2 µM | 0.0111 µM | 30 µM | – | – | N.I. | – | CCCCNC(=O)c1csc2c(=O)n(Cc3ccccc3C#N)c(N3CCC[C@@H](N)C3)nc12 [Compound 77, (R)-2-(3-aminopiperidln-1-yl)-N-butyl-3-(2-cyanobenzyl)-4-oxo-3,4-dihydrothieno[3,2-d]pyrimidine-7-carboxamide] |
| 60.4 µM | 407 µM | 64.3 µM | 0.0288 µM | 27.1 µM | – | – | – | – | CC(C)CCNC(=O)c1csc2c(=O)n(Cc3ccccc3C#N)c(N3CCC[C@@H](N)C3)nc12 [Compound 78, (R)-2-(3-aminopiperidin-1-yl)-3-(2-cyanobenzyl)-N-isopentyl-4-oxo-3,4-dihydrothieno[3,2-d]pyrimidine-7-carboxamlde] |
| 47 µM | 226 µM | 40.9 µM | 0.0151 µM | 357 µM | – | – | – | – | CC(C)CNC(=O)c1csc2c(=O)n(Cc3ccccc3C#N)c(N3CCC[C@@H](N)C3)nc12 [Compound 79, (R)-2-(3-aminopiperidin-1-yl)-3-(2-cyanobenzyl)-N-isobutyl-4-oxo-3,4-dihydrothieno[3,2-d]pyrimidine-7-carboxamide] |
| 25.7 µM | 115 µM | 28.7 µM | 0.026 µM | – | N.I. | – | – | – | N#Cc1ccccc1Cn1c(N2CCC[C@@H](N)C2)nc2c(C(=O)NC3CCCCC3)csc2c1=O [Compound 80, (R)-2-(3-aminopiperidin-1-yl)-3-(2-cyanobenzyl)-N-cyclohexyl-4-oxo-3,4-dihydrothieno[3,2-d]pyrimidine-7-carboxamide] |
